Values quoted from earlier work as cited in US10314922B2, “Trimaleimide linkers and uses thereof” (NewBio Therapeutics, Inc., priority 2015, dated 2019).

Tested on: human carcinoma lines

SMILES: COc1cccc2c1C(=O)c1c(O)c3c(c(O)c1C2=O)C[C@@](O)(C(=O)CO)C[C@@H]3O[C@H]1C[C@H](N)[C@H](O)[C@H](C)O1 [doxorubicin, Doxorubicin]
- IC50: 0.1 to 0.2 µM
